Columns and labels:
[1] = system: CAL-85-1; conditions: 72 h
Outline: (§1)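 EC50 was fitted from dose-response curves and censored at the highest concentration tested. To build those curves, breast cancer cell lines (20 µl suspension) were seeded into 384-well plates containing compound at 5 concentrations in 10-fold steps over a compound-specific 10,000-fold range and incubated for 72 h. Readouts were CellTox Green fluorescence (485/520 nm) for cell death and then CellTiter-Glo luminescence for viability, with each plate normalised to 0.1 % DMSO and a positive kill control.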

[2] = system: HCC1937; conditions: 72 h
Outline: as §1

[3] = system: CAL-148; conditions: 72 h
Outline: as §1

[4] = system: HDQ-P1; conditions: 72 h
Outline: as §1

[5] = system: HCC1599; conditions: 72 h
Outline: as §1

[6] = system: MDA-MB-453; conditions: 72 h
Outline: as §1

[7] = system: MDA-MB-468; conditions: 72 h
Outline: (§2)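 Breast cancer cell lines in 20 µl suspension were seeded onto 384-well plates pre-loaded with compound dissolved in 5 µl medium, then incubated 72 h. For viability, 2.5 µl CellTiter-Blue was added for 2 h at 37 °C and fluorescence read at 560/590 nm. Each plate was normalised to vehicle and a positive kill control and checked by Z'-factor. EC50 comes from the fitted percent-inhibition dose-response curve, censored at the highest concentration; rows with zero drug sensitivity score were dropped.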

[8] = system: Hs578T; conditions: 72 h
Outline: as §2

[9] = system: MDA-MB-231; conditions: 72 h
Outline: as §2

[10] = system: HCC1937; conditions: 72 h; remark: listed apart in the source
Outline: as §2

[11] = system: SK-BR-3; conditions: 72 h
Outline: as §2

[12] = system: BT-474; conditions: 72 h
Outline: as §2

[13] = system: Hs578T; conditions: 72 h; remark: listed apart in the source
Method: (§3)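 Drug sensitivity and resistance testing (DSRT) of breast cancer cell lines in 384-well plates, 5 concentrations in 10-fold dilutions over a compound-specific 10,000-fold range. After 72 h, cytotoxicity was read by CellTox Green fluorescence and viability by CellTiter-Glo luminescence (multiplexed), normalised to DMSO and benzethonium chloride controls. EC50 is the inflection point of the fitted dose-response curve (bottom asymptote free, so it can be relative for partial curves) and is censored at the highest tested concentration. Rows with DSS 0 (no meaningful response) were excluded.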

[14] = system: MDA-MB-231; conditions: 72 h; remark: listed apart in the source
Method: as §3

[15] = system: HCC1937; conditions: 72 h; remark: listed apart in the source
Method: as §3

[16] = system: CAL-148; conditions: 72 h; remark: listed apart in the source
Method: as §3

[17] = system: HDQ-P1; conditions: 72 h; remark: listed apart in the source
Method: as §3

[18] = system: BT-474; conditions: 72 h; remark: listed apart in the source
Method: as §3

[19] = system: CAL-51; conditions: 72 h
Method: as §3

[20] = system: BT-549; conditions: 72 h
Method: as §3

[21] = system: MDA-MB-468; test: normalised response (% of control), CellTiter-Glo; higher = more viable cells (100 = DMSO, 0 = benzethonium chloride kill control); conditions: incubation time: 72 h
Outline: (§4)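 Normalised signals at single concentrations make up the values. They come from breast cancer cell lines seeded (20 µl suspension) into 384-well plates with compound at 5 concentrations in 10-fold steps over a compound-specific 10,000-fold range, incubated 72 h, and read for CellTox Green fluorescence then CellTiter-Glo luminescence. Each plate was normalised to 0.1 % DMSO (100) and a positive kill control (0).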

[22] = system: MFM-223; test: as above; conditions: incubation time: 72 h
Outline: as §4

[23] = system: Hs578T; test: as above; conditions: incubation time: 72 h
Outline: as §4

[24] = system: MDA-MB-436; test: as above; conditions: incubation time: 72 h
Outline: as §4

[25] = system: CAL-51; test: as above; conditions: incubation time: 72 h
Outline: as §4

[26] = system: HCC1599; test: as above; conditions: incubation time: 72 h
Outline: as §4

[27] = system: MDA-MB-453; test: as above; conditions: incubation time: 72 h
Outline: as §4

[28] = system: CAL-120; conditions: 72 h
Method: as §3

[29] = system: MDA-MB-468; conditions: 72 h; remark: listed apart in the source
Method: as §3

| SMILES | EC50, CellTiter-Blue viability [9] [nM] | EC50, CellTiter-Blue viability [11] [nM] | normalised response [21] [%] | normalised response [22] [%] | normalised response [23] [%] | normalised response [24] [%] | normalised response [25] [%] | normalised response [26] [%] | normalised response [27] [%] | further results |
| --- | --- | --- | --- | --- | --- | --- | --- | --- | --- | --- |
| COc1ccc(-c2cc3c(C)nc(N)nc3n([C@H]3CC[C@H](OCCO)CC3)c2=O)cn1 | 144 | 40.5 | – | – | – | – | – | – | – | EC50, CellTiter-Glo [1]: 229 nM; EC50, CellTiter-Glo [2]: 444 nM; EC50, CellTiter-Glo [3]: 294 nM; EC50, CellTiter-Glo [4]: 190 nM; EC50, CellTiter-Glo [5]: 402 nM; EC50, CellTiter-Glo [6]: 115 nM; EC50, CellTiter-Blue viability [7]: 268 nM; EC50, CellTiter-Blue viability [8]: 158 nM; EC50, CellTiter-Blue viability [10]: 63 nM; EC50, CellTiter-Blue viability [12]: 193 nM; EC50, CellTox Green [13]: 6070 nM; EC50, CellTox Green [14]: 575 nM; EC50, CellTox Green [15]: 5410 nM; EC50, CellTox Green [16]: 787 nM; EC50, CellTox Green [17]: 1990 nM; EC50, CellTox Green [18]: 983 nM; EC50, CellTox Green [19]: 783 nM; EC50, CellTox Green [20]: 3870 nM |
| Cn1cc(CNCC2CCN(c3ncc(C(=O)NO)cn3)CC2)c2ccccc21 | 47.8 | 5.33 | – | – | – | – | – | – | – | EC50, CellTiter-Blue viability [7]: 38.9 nM; EC50, CellTiter-Blue viability [8]: 65.1 nM; EC50, CellTiter-Blue viability [10]: 33.6 nM; EC50, CellTiter-Blue viability [12]: 17 nM |
| O=C(NC[C@H](O)CO)c1ccncc1Nc1ccc(I)cc1F | 19.7 | – | – | – | – | – | – | – | – | – |
| COc1ccc(-c2cc3c(C)nc(N)nc3n([C@H]3CC[C@H](OCCO)CC3)c2=O)cn1 (10000 nM) | – | – | 4.65 | 13 | 5.22 | 37.1 | 0.68 | 44 | 3.84 | – |
| O=C(Nc1c[nH]nc1-c1nc2ccc(CN3CCOCC3)cc2[nH]1)NC1CC1 [AT9283] | 503 | 267 | – | – | – | – | – | – | – | EC50, CellTiter-Glo [4]: 303 nM; EC50, CellTiter-Blue viability [7]: 841 nM; EC50, CellTiter-Blue viability [8]: 337 nM; EC50, CellTiter-Blue viability [10]: 257 nM; EC50, CellTiter-Blue viability [12]: 1630 nM; EC50, CellTox Green [28]: 192 nM; EC50, CellTox Green [29]: 0.51 nM; EC50, CellTox Green [14]: 24.6 nM; EC50, CellTox Green [19]: 0.88 nM |
| O=C(Nc1c[nH]nc1-c1nc2ccc(CN3CCOCC3)cc2[nH]1)NC1CC1 [AT9283] (1000 nM) | – | – | 31.1 | 75.5 | 54.8 | 99.5 | 83 | 74.4 | 185 | – |
| COc1cc(CCc2cc(NC(=O)c3ccc(N4CC(C)NC(C)C4)cc3)n[nH]2)cc(OC)c1 (configuration not stated) [AZD4547] | – | – | – | – | – | – | – | – | – | EC50, CellTox Green [28]: > 1000 nM |
| COc1cc(CCc2cc(NC(=O)c3ccc(N4CC(C)NC(C)C4)cc3)n[nH]2)cc(OC)c1 (configuration not stated) [AZD4547] (1000 nM) | – | – | 104 | 53.3 | 87.6 | 98 | 108 | 80.9 | 85 | – |
| CCC/C=C/C=C/C(=O)O[C@H]1/C(=C/C(=O)OC)C[C@H]2C[C@H]([C@@H](C)O)OC(=O)C[C@H](O)C[C@@H]3C[C@H](OC(C)=O)C(C)(C)[C@](O)(C[C@@H]4C/C(=C/C(=O)OC)C[C@H](/C=C/C(C)(C)[C@]1(O)O2)O4)O3 [Bryostatin 1] | – | 155 | – | – | – | – | – | – | – | EC50, CellTox Green [17]: 0.9 nM |
| CCC/C=C/C=C/C(=O)O[C@H]1/C(=C/C(=O)OC)C[C@H]2C[C@H]([C@@H](C)O)OC(=O)C[C@H](O)C[C@@H]3C[C@H](OC(C)=O)C(C)(C)[C@](O)(C[C@@H]4C/C(=C/C(=O)OC)C[C@H](/C=C/C(C)(C)[C@]1(O)O2)O4)O3 [Bryostatin 1] (100 nM) | – | – | 98.3 | 104 | 88.6 | 111 | 96.5 | 86.4 | 103 | – |
| CO[C@@H](C(=O)N1Cc2[nH]nc(NC(=O)c3ccc(N4CCN(C)CC4)cc3)c2C1)c1ccccc1 [Danusertib] (10000 nM) | – | – | 50.1 | 45.6 | 46.1 | 57.5 | 31.1 | 78.5 | 95 | – |
| Cc1nc(Nc2ncc(C(=O)Nc3c(C)cccc3Cl)s2)cc(N2CCN(CCO)CC2)n1 [Dasatinib] (1000 nM) | – | – | 73.1 | 80.9 | 31.9 | 91.9 | 47.9 | 97.7 | 80.5 | – |
| O=S(=O)(c1cccc2cnccc12)N1CCCNCC1 [Fasudil] | – | – | – | – | – | – | – | – | – | EC50, CellTiter-Glo [6]: 27400 nM |
| CS(=O)(=O)N1CCN(Cc2cc3nc(-c4cccc5[nH]ncc45)nc(N4CCOCC4)c3s2)CC1 [GDC-0941] | 2240 | 158 | – | – | – | – | – | – | – | EC50, CellTiter-Blue viability [7]: 1650 nM; EC50, CellTiter-Blue viability [8]: 1460 nM; EC50, CellTiter-Blue viability [10]: 958 nM; EC50, CellTiter-Blue viability [12]: 770 nM |
| Cc1c(CN2CCN(C(=O)[C@H](C)O)CC2)sc2c(N3CCOCC3)nc(-c3cnc(N)nc3)nc12 [GDC-0980] (10000 nM) | – | – | 17.8 | 26.2 | 20.3 | 43.1 | 8.48 | 66.2 | 9.21 | – |
